Here are results for 1 molecule from US20220273617A1, “ANTI-CANCER, ANTI-INFLAMMATORY AND IMMUNOMODULATORY ACTIVITY OF R-CARVEDILOL AND METHODS OF USE” (priority 2021, published 2022).

The test system of data set [1] is B(a)P-induced lung tumor. The data set is described as follows: Long term B(a)P-induced lung carcinogenesis in A/J mice. Type of data set: in vivo. The settings on record: for tumor incidence: B(a)P only 100%. The method, then: To examine the chemopreventive efficacy of carvedilol, we used an established lung carcinogenesis model in A/J mice induced by B(a)P. Two drug doses were examined: 20 mg/kg (H) and 3.2 mg/kg (L). The mice were randomly divided by body weight into seven groups at the beginning of the experiments. To induce lung tumor, mice were given a single intraperitoneal (i.p.) injection of B(a)P at 100 mg/kg body weight in 0.2 ml tricaprylin. The following are treatment groups: (1) vehicle control, n=8; (2) B(a)P only, n=9; (3) B(a)P+gefitinib 400 mg/kg, weekly oral gavage, positive control, n=10; (4) B(a)P+carvedilol 20 mg/kg drinking water, n=9; (5) B(a)P+carvedilol 3.2 mg/kg drinking water, n=8; (6) B(a)P+R-carvedilol 20 mg/kg drinking water, n=9; (7) B(a)P+R-carvedilol 3.2 mg/kg drinking water, n=10. The mice began the drug treatments 3 weeks before B(a)P treatment and terminated at 23 weeks after B(a)P treatment. […] Tumor multiplicity was determined by counting surface tumors in fixed lung under a dissecting microscope. […] The tumor incidence for gefitinib group was 70%. The tumor incidence was 89% and 50% for high and low dose carvedilol, respectively. The tumor incidence was 67% and 70% for high and low dose R-carvedilol, respectively.

For data set [2] the following is noted: R-carvedilol alone, healthy human volunteers; cited from earlier work.
In data set [3] the test system is UV induced skin damage and inflammation. The data set is described as follows: Acute UV induced skin damage and inflammation model. Type of data set: in vivo, mouse. The settings on record: topical 0.1, 1 or 10 μM in acetone immediately after single UV 300 mJ/cm^2. The method, then: In an acute UV induced skin damage and inflammation model induced with a single dose of UV (300 mJ/cm^2), topical treatment with R-carvedilol (0.1, 1 or 10 μM in acetone as a vehicle), applied immediately after the UV, attenuated mouse skin edema and reduced epidermal thickening, Ki-67 staining, COX-2 protein, IL-6 and IL-10 mRNA levels.

Data set [4] is described as follows: In vitro penetration and skin retention, Franz diffusion cells and porcine ear skin. Type of data set: in vitro ADME. The settings on record: Franz diffusion cells, porcine ear skin; free drug in water or PEG 400. An excerpt: Thus, topical route has been investigated as a major approach in the application of R-carvedilol for clinical skin cancer prevention. In order to prepare for clinical studies, we prepared three types of transfersome-based formulation for R-carvedilol using different amount of phospholipid (soy phosphatidylcholine, SPC) or edge activator (tween-80). The particle sizes, zeta potential, encapsulation efficiency and stability for these transfersomes were very similar to those of T-CAR. […] This confirms that nano-transfersomes provide a promising delivery system for both carvedilol and R-carvedilol. Thus, this selected transfersomal formulation for R-carvedilol, named “T-RCAR”, will be further characterized in preclinical model systems and examined in clinical trials in the future.

Data set [5] in a line: Plasma concentration in mice given drug in drinking water. The data set is classed as in vivo. As to conditions: 178 μg/mL in drinking water (32 mg/kg/day), 2 weeks, 95% CI in brackets.
For data set [6] the following is noted: oral 1.6 mg/kg, mice; cited from earlier work.
Data set [7] has as its system 4T1. Kind of data set: Triple negative breast tumor 4T1 in BalB/C mice. The data set is classed as in vivo. As for the experimental part:
To investigate the effect of carvedilol and R-carvedilol on breast cancer growth, the BalB/C mice were treated with the drugs (20 mg/kg/day) in drinking water for two weeks before the mice were inoculated with murine triple negative breast tumor 4T1 in the fourth left mammary fat pad. […] The same experimental model was treated with carvedilol or R-carvedilol, in combination with the anti-PD-1 therapy.

Data set [8] deals with B(a)P-induced lung toxicity. The data set is described as follows: Short term single dose B(a)P-induced lung toxicity in mice. Type of data set: in vivo, CD1/IGS mice. An excerpt: Chronic exposure to carcinogens that are present in tobacco smoking or air pollution is a well-known cause of lung cancer. One of the most important strategies to manage lung cancer is chemoprevention, which uses synthetic or natural products to block or reverse lung cancer initiation, promotion, and progression. Benzo(a)pyrene (B(a)P), a polycyclic aromatic hydrocarbon, is a pro-carcinogen ubiquitously present as pollutants in the environment. It is mostly produced during cigarette smoking and is present in automobile exhausts, and causes lung toxicity and lung cancer after metabolic activation. A single dose B(a)P-induced lung toxicity study in mice was used to evaluate the protective effects of carvedilol. In male CD1/IGS mice, carvedilol was orally administered (20 mg/kg body weight) once a day for 7 days. The mice were then treated with a single dose B(a)P via oral gavage (125 mg/kg body weight) on day 7, 30 min after the drug treatment. Mice were sacrificed 24 hours after B(a)P treatment. As expected, B(a)P increased the plasma levels of lactate dehydrogenase (LDH) and Malondialdehyde (MDA) for lipid peroxides (LPO).

Data set [9] has as its system JB6. The data set is described as follows: EGF-induced JB6 transformation. The data set is classed as cell-based, mouse.
[10] abbreviates: oral 20 mg/kg once a day for 7 days, B(a)P 125 mg/kg on day 7.

On to `COc1ccccc1OCCNC[C@@H](O)COc1cccc2[nH]c3ccccc3c12` [R-carvedilol], for which, in [1] (20 and 3.2 mg/kg drinking water), the tumor inhibition result is “same trend of tumor inhibition as carvedilol”. For the same molecule, in data set [1] (high dose 20 mg/kg drinking water), the tumor incidence is given as 67%. The molecule also registered a tumor incidence in [1] (low dose 3.2 mg/kg drinking water) of 70%. The adverse effects entry in data set [2] was “without major adverse effects”. In data set [3], the COX-2 protein entry was “reduced”, the “IL-6 mRNA levels” value was “reduced”, the “IL-10 mRNA levels” value is listed as “reduced” and the Ki-67 staining result is given as “reduced”. In data set [3], the epidermal thickening entry is recorded as “reduced” and the mouse skin edema entry is “attenuated”. In [4], the skin permeation result is listed as “very little” and the skin retention result is listed as “very little”. This molecule registered a mean plasma concentration in [5] of 25.13 ng/mL. Also, the “heart rate or blood pressure” value in data set [6] is recorded as “did not alter heart rate or blood pressure”. Moreover, the tumor growth entry in data set [7] (20 mg/kg/day in drinking water from two weeks before inoculation, monotherapy) is “significantly reduced”. Further, the “efficacy in combination with anti-PD-1 therapy” value in [7] (same 4T1 model, combined with anti-PD-1) is on record as “enhanced the efficacy of anti-PD-1 monotherapy”. Further, in data set [8] (setting [10]), the “plasma LDH levels” value was “significantly attenuated” and the “plasma MDA levels (LPO)” value is recorded as “significantly attenuated”. For the same molecule, the “protection against B(a)P-induced histological changes and COX-2 expression” value in data set [8] (oral, compared with racemic carvedilol) was “same degree of protection as the racemic carvedilol”. Also, in data set [9], the “inhibitory effects on EGF-induced JB6 transformation” value was “nearly identical inhibitory effects”.
